Results published in US9359311B2, “Substituted aromatic oligomers” (NEUROSCIOS GMBH, priority 2011, dated 2016).
“Also recorded” adds a separate entry of the source.

How the values were obtained:
primary chicken neurons = test: Inhibition of Abeta 1-42 toxicity on primary chicken neurons (MTT); assay type: cell-based; parameters: key: No: no effect; +: minor positive effect on cell viability in the presence of aggregated Aβ 1-42; ++: medium positive effect on cell viability in the presence of aggregated Aβ 1-42; +++: strong positive effect on cell viability in the presence of aggregated Aβ 1-42; details: 10 μM Aβ1-42 aggregated together with compound for 48 h
Experimental: One-day-old fertilized eggs are stored under appropriate conditions until start of breeding. On embryonic day 0 eggs are transferred to the breeding incubator and under turning, kept at 37.8° C. and 55% humidity until embryonic day eight. Neurons are prepared as follows: In short, embryos are transferred to a plastic dish, and decapitated. Both brain hemispheres are removed, collected and any loose tissue removed. Hemispheres are mechanically dissociated and 4.8×10^4 cells per well (96-well plates) are seeded in a volume of 160 μl.
Aβ1-42 (MW 4514.1) was obtained from American Peptide Company as a lyophilized powder. A stock solution of 340 μM Aβ1-42 was prepared in 50 mM Tris-Buffer, 150 mM NaCl, pH7.6 according to the manufacturer's instructions. After sonication, the stock solution is diluted 1:1 with the test compounds to obtain a concentration of 170, 17 and 1.7 μM. After aggregation at 4° C. for 48 h, the solutions are sonicated again prior to application to the cells. The final concentration of Aβ1-42 applied to the primary chicken neurons is 10 μM.
Aβ1-42 aggregated together with compound for 48 hrs was applied to chicken neurons at DIV4 (days in vitro) and analyzed at DIV10 (144 hrs) and all others were applied to chicken neurons at DIV6 and analysed at DIV10 (96 hrs).
Viability of cultures is determined by the MTT assay. The MTT assay allows for the measurement of the mitochondrial dehydrogenase activity which reduces yellow MTT to dark blue formazan crystals. Since this reaction is catalyzed in living cells only this assay is used for the determination of cell viability. MTT solution is added to each well in a final concentration of 0.5 mg/ml. After 2 hours the MTT containing medium is aspired. Cells are lysed in 3% SDS and the formazan crystals are dissolved in isopropanol/HCl. Optical density is measured with a plate-reader at wavelength 570 nm. Cell survival rate is expressed as a percentage of optical density (OD) relative to control cells not treated with Aβ or compound.

[1] = system: PHF-tau doubly-phosphorylated at Thr231 and Ser235; test: Phosphorylation of Tau in neurites crossing amyloid plaques, AT180 IHC, hAPPSL Tg mice; assay type: in vivo, mouse
Experimental: (§1) Vehicle: Phosphate Buffered Saline (PBS; 6.7 mM PO4, 155 mM NaCl, pH=7.3-7.5) (BioWhittaker PBS from Lonza).
(§2) Test Item (T.I.): p-FTAA and P9707_003, diluted in vehicle from stock solution in deionized water (10 mg/ml).
(§3) Tg hAPPSL: Transgenic hAPPSL mice over-expressing hAPP(751) under the control of the murine Thy-1 promoter with a C57BL/6xDBA background.
(§4) 48 hAPP Tg mice plus 4 reserves allocated to 4 different treatment groups were treated with either vehicle only (control), p-FTAA or P9707_003. As an additional control, 12 nTg littermates of the hAPPSL mice (plus 1 reserve) were treated with vehicle only. Starting at 6.5 months of age, female hAPPSL mice were treated with vehicle only, p-FTAA (dosage: 1 or 10 mg/kg/day) or P9707_003 (dosage: 10 mg/kg/day) for 90 days. The Test Items (T.I.s) were administered in Vehicle. Compound and vehicle were administered twice daily i.p. for 90 days. Tg hAPPSL mice with a C57BL/6xDBA background and corresponding nTg littermates at an age of 6.5 months (+2 weeks) were randomly assigned to the treatment groups.
Histological evaluations were performed with six randomly chosen cryo-frozen brain hemispheres of treatment groups PBS Control, p-FTAA 1 mg/kg/day, p-FTAA 10 mg/kg/day, and P9707_003 10 mg/kg/day.
15 cryo-sections per level (altogether 5 levels), each 10 μm thick (Leica CM 3050S) were sagittally cut. Brain levels were chosen according to the morphology atlas “The Mouse Brain” from Paxinos and Franklin (2nd edition). The cutting of the five levels started with a random slice, then sampling was continued uniformly and systematically, always retaining 15 slices per level in series and discarding 100 μm in between the levels.
TAU phosphorylation was visualized immunohistochemically using the AT180 antibody. Clone AT180 recognizes PHF-tau doubly-phosphorylated at Thr231 and Ser235.
For determination of amyloid depositions 5 slices (1 from each level) per brain were stained and screened. From each slice five images were captured from 5 defined areas in the brain. The order of these positions reflect the time course of plaque deposition in the APPsl model, which starts in the frontal cortex (P11) at the age of 3 months and then spreads to the medial (P12) and dorsal cortex over age. At six months of age, plaques can be found in the medial cortex (P13), from then plaque load spreads into the hippocampal formation with hot spots in the subiculum (P14) and the dentate gyrus (P15) at the age of nine months.
(§5) Mosaic images for plaque load quantification including the whole cortex and hippocampus were recorded on a Zeiss AxioImager.Z1 microscope using high aperture lenses and an AxioVision 4.8 software driven AxioCam MRm (10× lens, 1× optocoupler). Plaques for AT180 quantifcation were imaged with a 20× lens. Detail images for qualitative figures are 40× image stacks collapsed to 2D by the extended depth of field function of AxioVision software.
Descriptive statistical analysis was performed on all evaluated parameters, Kolmogorov Smirnov test were performed to test normal distribution of data. Data in graphs are represented as mean±SEM.

[2] = system: amyloid depositions (plaques); test: Plaque number and plaque area in hAPPSL Tg mice (ThioflavinS staining); assay type: in vivo, mouse; details: twice daily i.p., 90 days, vs vehicle
Experimental: as §1, §2, §3
as §4, with “groups. […]” for “groups.”
Plaque load was quantified by staining with ThioflavinS staining of beta-sheet structures in a double incubation.
For determination of amyloid depositions 5 slices (1 from each level) per brain were stained and screened. Region areas (hippocampus and cortex) were measured and plaque surface area, number of plaques and mean size of objects within each region were quantified separately using automated image analysis software (Image Pro Plus, version 6.2).
as §5, with “Detail images for qualitative figures are 40× image stacks collapsed to 2D by the extended depth of field function of AxioVision software.” left out
Descriptive statistical analysis was performed on all evaluated parameters, Kolmogorov Smirnov test were performed to test normal distribution of data. […]

[3] = P9707_003 10 mg/kg/day, p-FTAA 1 or 10 mg/kg/day

O=C(O)Cc1ccsc1-c1ccc(-c2sc(-c3ccc(-c4cc(CC(=O)O)c(-c5ccc(-c6sccc6CC(=O)O)s5)s4)s3)cc2CC(=O)O)s1 [Example 1, 2-(2-{5-[3-(Carboxymethyl)-5-{5-[4-(carboxymethyl)-5-{5-[3-(carboxymethyl)thiophen-2-yl]thiophen-2-yl}thiophen-2-yl]thiophen-2-yl}thiophen-2-yl]thiophen-2-yl}thiophen-3-yl)acetic acid]
Rescue of Abeta toxicity (MTT) (primary chicken neurons; Conc. 0.1 μM): no
Rescue of Abeta toxicity (MTT) (primary chicken neurons; Conc. 1 μM): +++
Rescue of Abeta toxicity (MTT) (primary chicken neurons; Conc. 10 μM): +++
AT180 load ([1]; 10 mg P9707_003 treatment, plaque sides 2 and 4): significant reduction
AT180 IR in plaques of younger history of origin (hippocampal formation, subiculum, dentate gyrus) ([1]; 90 days i.p., hAPPSL Tg mice): drastically reduced
AT180 load at hippocampal plaques, reduced to ([1]; P9707_003 10 mg/kg/day, 90 days i.p.): approximately 45%
reduction of AT180 ([1]; P9707_003 10 mg/kg/day, 90 days i.p., positions 4 and 5): more than 40%
reduction of plaque number in the hippocampus ([2]; 10 mg/kg/day, ThioflavinS): 54%
hippocampal plaque area percentage (ThioflavinS) [2, 3]: significantly lower plaque load; also recorded: reduced
number of ThioflavinS positive objects (plaque number) in the hippocampus [2, 3]: reduced object number; also recorded: highly significant reduced
